# According to patent publication US12728119B2, “Pharmaceutical composition for preventing or treating cancer comprising 3-ketoacyl CoA thiolase inhibitor and carnitine acylcarnitine carrier inhibitor” (NATIONAL CANCER CENTER, priority 2020, dated 2026):
# “And” between values parts separate entries of the source, which are not always exact repeats. Equal entries are not always repeated.
# Legend:
# Assay type in all cases: cell-based
# [1] = system: SNU-213 pancreatic cancer cells; assay: SRB analysis 2; details: SNU213, 48 hours
# Experimental: (§1) The SRB assay was performed as follows: each cell line (100 μl) was seeded into 96-well microtiter plates at densities ranging from 5,000 to 20,000 cells/well depending on the doubling time of each cell line. After cell seeding, microtiter plates were incubated for 24 h before addition of experimental drug. Drugs were prepared at the indicated concentrations and 100 μl was added to each well; The plates were then incubated in a CO2 incubator. Then, cold TCA was added to terminate the assay. Cells were fixed in situ by gentle addition of 50 μl of cold 50% (w/v) TCA (final concentration: 10% TCA) and incubated at 4° C. for 60 min. The supernatant was discarded and the plate was washed 5 times with tap water and then air dried. A solution (100 μl) of 0.4% (w/v) SRB (Sulforhodamine B) in 1% acetic acid was added to each well, and the plate was left at room temperature for 10 minutes. After staining, the plates were air dried after washing 5 times with 1% acetic acid to remove unbound dye. The bound dye was then solubilized with 10 mM trizma base and the absorbance was recorded at 515 nm using an automated plate reader.
# [2] = system: BxPC-3 pancreatic cancer cells; assay: SRB analysis 2; details: 48 hours
# Experimental: as §1
# [3] = system: SU.86.86 pancreatic cancer cells; assay: SRB analysis 2; details: 48 hours
# Experimental: as §1
# [4] = system: AsPC-1 pancreatic cancer cells; assay: SRB analysis 2; details: 48 hours
# Experimental: as §1
# [5] = system: SNU-324 pancreatic cancer cells; assay: SRB analysis 2; details: SNU324, 48 hours
# Experimental: as §1
# [6] = system: MIA PaCa2 pancreatic cancer cells; assay: SRB analysis 2; details: MIA PaCa-2, 48 hours
# Experimental: as §1
# [7] = system: U87MG glioblastoma (GBM) cell line; assay: SRB analysis 3; details: 48 hours
# Experimental: (§2) Through SRB analysis (n=3), the effect of triple combination treatment of a CAC inhibitor ([…] inhibitor (KN713: trimetazidine) and other anticancer drug on cell growth in the cancer cells was analyzed. (see Table 11). The SRB assay was performed as follows: each cell line (100 μl) was seeded into 96-well microtiter plates at densities ranging from 5,000 to 40,000 cells/well depending on the doubling time of each cell line. After 24 hours, drug (100 μl per well) was added to each well and the culture was incubated at 37° C. for 48 hours. Cells were then fixed in 50% TCA (50 μl per well) and plates were incubated at 4° C. for a minimum of 1 hour or a maximum of 3 hours. After that, the liquid was removed from the plate, then rinsed 5 times with water and dried for approximately 12-24 hours at room temperature (RT). After the fixed cells were stained with 0.4% SRB (100 μl per well) for 10 minutes at room temperature, the plates were washed 3 times with 1% glacial acetic acid and dried at room temperature for about 12-24 hours. SRB staining was dissolved in 10 mM Trizma base and absorbance was read at 515 nm.
# [8] = system: T87G glioblastoma (GBM) cell line; assay: SRB analysis 3; details: 48 hours
# Experimental: as §2
# [9] = system: MIA PaCa2 pancreatic cancer cell line; assay: SRB analysis 1; details: Homo sapiens, % compared to the control group, read-out: degree of growth inhibition
# Experimental: (§3) Pancreatic cancer (MIA PaCa2, Capan1, Capan2, BxPC-3, SNU-213 or SNU-324) cell lines (100 μl) were seeded into 96-well microtiter plates at densities ranging from 7,500 to 10,000 cells/well depending on the doubling time of each cell line. After adding Trimetazidine (KN713) 1 mM, omeprazole (KN510) 100 or 200 μM, trimetazidine 1 mM+omeprazole 100 μM, trimetazidine 1 mM+omeprazole 200 μM, respectively, to each well by 100 μl each, and plate was incubated in a CO2 incubator, and cold TCA was added to terminate the assay. 50 μl of cold 50% (w/v) TCA (final concentration: 10% TCA) was gently added to fix the cells and incubated at 4° C. for 60 minutes. The supernatant was discarded and the plate was washed 5 times with tap water and then air dried. A solution of 0.4% (w/v) Sulforhodamine B (100 μl) in 1% acetic acid was added to each well, and the plate was left at room temperature for 10 minutes. After staining, the plates were air dried after washing 5 times with 1% acetic acid to remove unbound dye. The bound dye was then solubilized with 10 mM trizma base and the absorbance was recorded at 515 nm using an automated plate reader.
# [10] = system: SNU-213 pancreatic cancer cell line; assay: SRB analysis 1; details: % compared to the control group, read-out: degree of growth inhibition
# Experimental: as §3
# [11] = system: SNU-324 pancreatic cancer cell line; assay: SRB analysis 1; details: % compared to the control group, read-out: degree of growth inhibition
# Experimental: as §3
# [12] = system: Capan2 pancreatic cancer cell line; assay: SRB analysis 1; details: Homo sapiens, % compared to the control group, read-out: degree of growth inhibition
# Experimental: as §3
# [13] = system: BxPC-3 pancreatic cancer cell line; assay: SRB analysis 1; details: Homo sapiens, % compared to the control group, read-out: degree of growth inhibition
# Experimental: as §3
# [14] = system: Capan1 pancreatic cancer cell line; assay: SRB analysis 1; details: Homo sapiens, % compared to the control group, read-out: degree of growth inhibition
# Experimental: as §3
structure (smiles),measurement,setting,value
"COc1ccc2[nH]c([S+]([O-])Cc3ncc(C)c(OC)c3C)nc2c1 (stereo not shown) [KN510, omeprazole]",degree of cell growth based on the control (100%),[1]; KN510 100 μM,97.11%
same,degree of cell growth based on the control (100%),[1]; KN510 200 μM,54.29%
same,degree of cell growth based on the control (100%),[2]; KN510 100 μM,40.19%
same,degree of cell growth based on the control (100%),[2]; KN510 200 μM,17.37%
same,degree of cell growth based on the control (100%),[3]; KN510 100 μM,78.12%
same,degree of cell growth based on the control (100%),[3]; KN510 200 μM,53.01%
same,degree of cell growth based on the control (100%),[4]; KN510 100 μM,77.31%
same,degree of cell growth based on the control (100%),[4]; KN510 200 μM,28.00%
same,degree of cell growth based on the control (100%),[5]; KN510 100 μM,43.26%
same,degree of cell growth based on the control (100%),[5]; KN510 200 μM,19.68%
same,degree of cell growth based on the control (100%),[6]; KN510 100 μM,86.46%
same,degree of cell growth based on the control (100%),[6]; KN510 200 μM,44.41%
same,cell growth (Control = 100),[7]; KN510 100 μM,84.15
same,cell growth (Control = 100),[8]; KN510 100 μM,67.87
same,inhibition at 100 µM,"[9]; MIA PaCa-2, KN510 100 μM",70.8%
same,inhibition at 200 µM,"[9]; MIA PaCa-2, KN510 200 μM",92.8%
same,inhibition at 100 µM,[10]; KN510 100 μM,81%
same,inhibition at 200 µM,[10]; KN510 200 μM,89.6%
same,inhibition at 100 µM,[11]; KN510 100 μM,68.2%
same,inhibition at 200 µM,[11]; KN510 200 μM,89.8%
same,inhibition at 100 µM,"[12]; Capan-2, KN510 100 μM",1.3%
same,inhibition at 200 µM,"[12]; Capan-2, KN510 200 μM",49.5%
same,inhibition at 100 µM,"[13]; BX-PC3, KN510 100 μM",79.5%
same,inhibition at 200 µM,"[13]; BX-PC3, KN510 200 μM",96.9%
same,cell growth (% of control) at 100 µM,"[14]; CAPAN-1, KN510 100 μM",97.6%
same,cell growth (% of control) at 200 µM,"[14]; CAPAN-1, KN510 200 μM",111%
"COc1ccc(CN2CCNCC2)c(OC)c1OC [KN713, trimetazidine]",degree of cell growth based on the control (100%),[1]; KN713 2.5 mM,−0.24% and 1.98%
same,degree of cell growth based on the control (100%),[2]; KN713 2.5 mM,36.83% and 32.97%
same,degree of cell growth based on the control (100%),[3]; KN713 2.5 mM,88.97% and 65.95%
same,degree of cell growth based on the control (100%),[4]; KN713 2.5 mM,61.66% and 62.56%
same,degree of cell growth based on the control (100%),[5]; KN713 2.5 mM,53.40% and 61.55%
same,degree of cell growth based on the control (100%),[6]; KN713 2.5 mM,78.16% and 58.31%
same,cell growth (Control = 100),[7]; KN713 2.5 mM,66.40
same,cell growth (Control = 100),[8]; KN713 2.5 mM,59.89
same,inhibition at 1000 µM,"[9]; MIA PaCa-2, KN713 1 mM",30.2%
same,inhibition at 1000 µM,[10]; KN713 1 mM,48.1%
same,inhibition at 1000 µM,[11]; KN713 1 mM,-3.16%
same,inhibition at 1000 µM,"[12]; Capan-2, KN713 1 mM",-22.2%
same,inhibition at 1000 µM,"[13]; BX-PC3, KN713 1 mM",12.3%
same,cell growth (% of control) at 1000 µM,"[14]; CAPAN-1, KN713 1 mM",31.2%
